In series [1] the test system is SH-SY5Y cells. As to the kind of experiment: viability of neuroblastoma cells (MTS assay). Format: cell-based, human. Here is the method:
The toxicity of AR71 in neuroblastoma cells was evaluated with the 3-(4,5-dimethylthiazol-2-yl)-5-(3-carboxymethoxyphenyl)-2-(4-sulfophenyl)-2H-tetrazolium (MTS) assay. The cells were cultured with AR71 at various concentrations ranging from nanomolar to micromolar for 24 h.
SH-SY5Y cells (the human neuroblastoma cell line) were purchased from the American Type Culture Collection (ATCC® no. CRL-2266™; Manassas, VA, USA). The cells were grown in a complete culture medium containing DMEM/F-12 medium (Gibco no. A41920-01) supplemented with 10% foetal bovine serum (FBS, Gibco no. 10500-064), non-essential amino acids (Biowest, Nuaillé, France), and antibiotics (Life Technologies) in a humidified incubator containing 95% air and 5% CO2 at 37 °C. Experiments were performed with SH-SY5Y cells from passage (15 up to 25—W.W.).
Neurotoxicity evaluation was performed with the SH-SY5Y cell line. The cells were seeded (5 × 10^3 cells/100 μL/well) in transparent 96-well plates (Corning Falcon, no. 353072, Merck KGaA, Darmstadt, Germany), in a complete culture medium and cultured overnight. The next day, the medium was removed and replaced with a fresh one containing 0.1% DMSO (vehicle control, Veh) or increasing concentration of the AR71 compound (the concentrations studied covered the range of nanomolar and micromolar concentrations). Treatment with the compounds was performed for 24 h. At the end of the incubation time, the cells were examined under an inverted microscope to rule out possible precipitation of the compound in the culture medium. Cell viability was examined using an MTS-based CellTiter96® AQueous One Solution Cell Proliferation Assay (Promega, Madison, WI, USA) following the manufacturer’s protocol. Briefly, 20 μL of MTS solution was pipetted directly into each well containing 100 μL of culture medium with or without cells (blank) and incubated at 37 °C for 1 h. The absorbance was measured at 490 nm using the Tecan Spark multimode plate reader (Tecan, Männedorf, Switzerland). A reference wavelength of 630 nm was used to subtract the background. The viability of individual samples was calculated relative to the vehicle-treated cells (0.1% DMSO). The results are presented as means with SEMs of two independent experiments, each comprising four replicates per treatment group. Data from the MTS assay were used to determine the IC50 value. It was calculated by fitting a nonlinear regression to a sigmoidal dose–response curve in GraphPad Prism version 8.0.1 (GraphPad Software, Inc., San Diego, CA, USA).
Background: Tetrazolium assays rely on reduction of a dye to a coloured formazan, in cell work by metabolically active cells.

For the next series, the system named is BV-2 cells. Further details: method as in PMID 36370200. Particulars: LPS-treated BV-2 cells; cited from earlier work.
Series [2] concerns SH-SY5Y cells. As to the kind of experiment: DNA content / cell cycle (2N/4N DNA ratio), image cytometry. The format is cell-based, human. Here is the method: To evaluate the growth dynamics of SH-SY5Y cells in the presence of AR71, neuroblastoma cells were treated with increasing concentrations (0.39–25 µM) of the compound tested for 24 or 72 h. Using image cytometry, we calculated the DNA content index as a 2N/4N DNA ratio to analyse the cell cycle distribution after 24 and 72 h of incubation with AR71.
SH-SY5Y cells were initially seeded in 96-well plates at a density of 5000 cells per well in 120 μL of medium. After 24 h, the cells were exposed to different concentrations of AR71 for either 24 or 72 h. Following a wash with PBS, the cells were fixed with 4% formaldehyde for 20 min and then stained with 1 µg/mL of Hoechst 33342 for 30 min at room temperature. Subsequently, images of 16 fields per well were captured using the ArrayScan VTI HCS Reader from Thermo Fisher Scientific, Inc. (Thermo Fisher Scientific, Waltham, MA, USA), which was equipped with a 5× objective. The cell number was calculated as the sum of the Hoechst-33342-stained cell nuclei using Cell Cycle Bioapplication V3 software and expressed as a per cent of control. The remaining adherent cells in culture wells reflected the cytotoxic potential of the tested compound. In the next step, a series of detailed images were acquired using the ArrayScan VTI HCS Reader equipped with a 10× objective to collect at least 500 nuclei/cells per replicate. The DNA cell content of single cells was analysed based on Hoechst-33342 fluorescence intensity of their nuclei using Cell Cycle Bioapplication V3 software and presented as the DNA 2N/4N ratio. All experiments were performed three times, each in four replicates. IC50 values were calculated with a non-linear fit to a sigmoidal dose–response curve (log compound vs. normalised response) using GraphPad Prism 6.07. The results are presented as mean ± SEM from at least three independent experiments. Statistical significance was evaluated using one-way ANOVA followed by Dunnett’s test. * p < 0.05, ** p < 0.01, and *** p < 0.001 indicate significant differences compared with the control counterparts.

Each structure is given as a SMILES string. A value given as a limit tells only on which side of the number the result lay.

The values below come from publication PMC11311998, “AR71, Histamine H3 Receptor Ligand—In Vitro and In Vivo Evaluation (Anti-Inflammatory Activity, Metabolic Stability, Toxicity, and Analgesic Action)” (International Journal of Molecular Sciences, 2024).

In general, IC50 refers to the concentration at which inhibition is half-maximal. A lower IC50 goes with greater potency in that assay.

Consider `COc1cc(/C=C/C(=O)c2ccc(OCCCN3CCCCC3)cc2)cc(OC)c1OC` [AR71, (E)-3-(3,4,5-trimethoxyphenyl)-1-(4-(3-(piperidin-1-yl)propoxy)phenyl)prop-2-en-1-one], for which, in the series on SH-SY5Y cells [1] (50 μM, 24 h), the “loss in neuroblastoma viability vs control cells” value came out at 73%. The “concentration from which cell metabolic activity decreased significantly (p < 0.001)” value with SH-SY5Y cells [1] (24 h) is not below 4.17 µM. Further, in the series with SH-SY5Y cells [1] (Homo sapiens, SH-SY5Y, 24 h incubation), 24.9 µM corresponded to half-maximal inhibition (IC50). The “effect on cell viability” value in the series on SH-SY5Y cells [1] (concentrations up to 0.72 μM, 24 h) is recorded as “did not affect cell viability”. Further, the “effect on proinflammatory cytokines (IL-1β, IL-6, TNF-α), mRNA and protein level” value in the series with BV-2 cells is “reduced the level of proinflammatory cytokines”. The “effect on cell cycle” value in the series on SH-SY5Y cells [2] (3.125–25 µM, 24 and 72 h) is “cell cycle arrest at the G2/M phase (4N)”. In addition, the “IC50 for 2N/4N DNA ratio” value was determined as 18.8 µM in the series on SH-SY5Y cells [2] (24 h incubation) and 4.54 µM in the series with SH-SY5Y cells [2] (72 h incubation).
